According to PubChem BioAssay AID1918993 (Molecular Pharmacology Branch, DTP, NCI, 2023):

Tested on: 233499-124-R-J3-PDC complex spheroid growth
Test: Anticancer human tumor 233499-124-R-J3-PDC patient-derived colon adenocarcinoma cell line growth inhibition [AhR]
Conditions: for IC50: curve of first compound; for viability, T/C: stronger effect = lower value
Method in brief: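 Agents were dosed in half-log steps down from roughly clinical Cmax, or from 10 microM where Cmax was unknown, alone and with AhR antagonists. Read-out: percent test/control growth of tumor spheroids containing HUVEC and MSC stromal cells.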

[1] = second compound 0.1 µM, first compound 0.0316 µM
[2] = second compound 0.1 µM, first compound 0.1 µM
[3] = second compound 0.1 µM, first compound 0.316 µM
[4] = second compound 0.1 µM, first compound 1 µM
[5] = second compound 0.1 µM, first compound 3.16 µM
[6] = second compound 0.1 µM, first compound 10 µM
[7] = second compound 0.316 µM, first compound 0.0316 µM
[8] = second compound 0.316 µM, first compound 0.1 µM
[9] = second compound 0.316 µM, first compound 0.316 µM
[10] = second compound 0.316 µM, first compound 1 µM
[11] = second compound 0.316 µM, first compound 3.16 µM
[12] = second compound 0.316 µM, first compound 10 µM
[13] = second compound 1 µM, first compound 0.0316 µM
[14] = second compound 1 µM, first compound 0.1 µM
[15] = second compound 1 µM, first compound 0.316 µM
[16] = second compound 1 µM, first compound 1 µM
[17] = second compound 1 µM, first compound 3.16 µM
[18] = second compound 1 µM, first compound 10 µM
[19] = second compound 3.16 µM, first compound 0.0316 µM
[20] = second compound 3.16 µM, first compound 0.1 µM
[21] = second compound 3.16 µM, first compound 0.316 µM
[22] = second compound 3.16 µM, first compound 1 µM
[23] = second compound 3.16 µM, first compound 3.16 µM
[24] = second compound 3.16 µM, first compound 10 µM
[25] = second compound 10 µM, first compound 0.0316 µM
[26] = second compound 10 µM, first compound 0.1 µM
[27] = second compound 10 µM, first compound 0.316 µM
[28] = second compound 10 µM, first compound 1 µM
[29] = second compound 10 µM, first compound 3.16 µM
[30] = second compound 10 µM, first compound 10 µM
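Note: spheroids exposed to agents for seven days before reading.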

CCc1c2c(nc3ccc(O)cc13)-c1cc3c(c(=O)n1C2)COC(=O)[C@]3(O)CC + Cc1ccccc1N=Nc1ccc(NC(=O)c2ccnn2C)c(C)c1
IC50 (second compound 0.1 µM): > 0.3 µM
IC50 (second compound 0.316 µM): > 0.3 µM
IC50 (second compound 1 µM): > 0.3 µM
IC50 (second compound 3.16 µM): > 0.3 µM
IC50 (second compound 10 µM): > 0.3 µM
viability, T/C (second compound 0.1 µM, first compound 0.000949 µM): 95.3%
viability, T/C (second compound 0.1 µM, first compound 0.003 µM): 103%
viability, T/C (second compound 0.1 µM, first compound 0.00949 µM): 102%
viability, T/C (second compound 0.1 µM, first compound 0.03 µM): 81.8%
viability, T/C (second compound 0.1 µM, first compound 0.0949 µM): 90.4%
viability, T/C (second compound 0.1 µM, first compound 0.3 µM): 76.6%
viability, T/C (second compound 0.316 µM, first compound 0.000949 µM): 87.6%
viability, T/C (second compound 0.316 µM, first compound 0.003 µM): 91.4%
viability, T/C (second compound 0.316 µM, first compound 0.00949 µM): 88.5%
viability, T/C (second compound 0.316 µM, first compound 0.03 µM): 75.4%
viability, T/C (second compound 0.316 µM, first compound 0.0949 µM): 77.8%
viability, T/C (second compound 0.316 µM, first compound 0.3 µM): 88%
viability, T/C (second compound 1 µM, first compound 0.000949 µM): 105%
viability, T/C (second compound 1 µM, first compound 0.003 µM): 113%
viability, T/C (second compound 1 µM, first compound 0.00949 µM): 102%
viability, T/C (second compound 1 µM, first compound 0.03 µM): 78.3%
viability, T/C (second compound 1 µM, first compound 0.0949 µM): 84.5%
viability, T/C (second compound 1 µM, first compound 0.3 µM): 86.2%
viability, T/C (second compound 3.16 µM, first compound 0.000949 µM): 91.5%
viability, T/C (second compound 3.16 µM, first compound 0.003 µM): 105%
viability, T/C (second compound 3.16 µM, first compound 0.00949 µM): 86.5%
viability, T/C (second compound 3.16 µM, first compound 0.03 µM): 86.9%
viability, T/C (second compound 3.16 µM, first compound 0.0949 µM): 91.8%
viability, T/C (second compound 3.16 µM, first compound 0.3 µM): 73.4%
viability, T/C (second compound 10 µM, first compound 0.000949 µM): 107%
viability, T/C (second compound 10 µM, first compound 0.003 µM): 90.6%
viability, T/C (second compound 10 µM, first compound 0.00949 µM): 104%
viability, T/C (second compound 10 µM, first compound 0.03 µM): 103%
viability, T/C (second compound 10 µM, first compound 0.0949 µM): 106%
viability, T/C (second compound 10 µM, first compound 0.3 µM): 101%

Nc1ccccc1NC(=O)c1ccc(CNC(=O)OCc2cccnc2)cc1 + Cc1ccccc1N=Nc1ccc(NC(=O)c2ccnn2C)c(C)c1
IC50 (second compound 0.1 µM): 5.08 µM
IC50 (second compound 0.316 µM): 5.64 µM
IC50 (second compound 1 µM): 5.44 µM
IC50 (second compound 3.16 µM): 5.35 µM
IC50 (second compound 10 µM): 4.81 µM
viability, T/C [1]: 116%
viability, T/C [2]: 93.3%
viability, T/C [3]: 106%
viability, T/C [4]: 129%
viability, T/C [5]: 80%
viability, T/C [6]: 7.02%
viability, T/C [7]: 116%
viability, T/C [8]: 103%
viability, T/C [9]: 119%
viability, T/C [10]: 113%
viability, T/C [11]: 93%
viability, T/C [12]: 7.54%
viability, T/C [13]: 116%
viability, T/C [14]: 107%
viability, T/C [15]: 117%
viability, T/C [16]: 130%
viability, T/C [17]: 86.4%
viability, T/C [18]: 9.07%
viability, T/C [19]: 112%
viability, T/C [20]: 106%
viability, T/C [21]: 118%
viability, T/C [22]: 113%
viability, T/C [23]: 86.8%
viability, T/C [24]: 6.35%
viability, T/C [25]: 93.4%
viability, T/C [26]: 108%
viability, T/C [27]: 105%
viability, T/C [28]: 109%
viability, T/C [29]: 74.4%
viability, T/C [30]: 7.59%

Nc1ccn(C2OC(CO)C(O)C2(F)F)c(=O)n1 (stereo not given) + Cc1ccccc1N=Nc1ccc(NC(=O)c2ccnn2C)c(C)c1
IC50 (second compound 0.1 µM): > 10 µM
IC50 (second compound 0.316 µM): 0.282 µM
IC50 (second compound 1 µM): > 10 µM
IC50 (second compound 3.16 µM): > 10 µM
IC50 (second compound 10 µM): > 10 µM
viability, T/C [1]: 103%
viability, T/C [2]: 93.1%
viability, T/C [3]: 69.5%
viability, T/C [4]: 56.9%
viability, T/C [5]: 65.7%
viability, T/C [6]: 64.6%
viability, T/C [7]: 91.2%
viability, T/C [8]: 101%
viability, T/C [9]: 42.1%
viability, T/C [10]: 39.1%
viability, T/C [11]: 41%
viability, T/C [12]: 57%
viability, T/C [13]: 95.5%
viability, T/C [14]: 93.7%
viability, T/C [15]: 62.8%
viability, T/C [16]: 47.4%
viability, T/C [17]: 59.6%
viability, T/C [18]: 53.6%
viability, T/C [19]: 84.5%
viability, T/C [20]: 81.3%
viability, T/C [21]: 65.9%
viability, T/C [22]: 55.8%
viability, T/C [23]: 65.8%
viability, T/C [24]: 68.7%
viability, T/C [25]: 94%
viability, T/C [26]: 111%
viability, T/C [27]: 93.5%
viability, T/C [28]: 87.8%
viability, T/C [29]: 71.2%
viability, T/C [30]: 76.5%

O=C(c1cc(Cc2n[nH]c(=O)c3ccccc23)ccc1F)N1CCN(C(=O)C2CC2)CC1 + Cc1ccccc1N=Nc1ccc(NC(=O)c2ccnn2C)c(C)c1
IC50 (second compound 0.1 µM): > 10 µM
IC50 (second compound 0.316 µM): > 10 µM
IC50 (second compound 1 µM): > 10 µM
IC50 (second compound 3.16 µM): > 10 µM
IC50 (second compound 10 µM): > 10 µM
viability, T/C [1]: 106%
viability, T/C [2]: 109%
viability, T/C [3]: 89%
viability, T/C [4]: 117%
viability, T/C [5]: 114%
viability, T/C [6]: 112%
viability, T/C [7]: 106%
viability, T/C [8]: 99.9%
viability, T/C [9]: 89.6%
viability, T/C [10]: 93.5%
viability, T/C [11]: 92.7%
viability, T/C [12]: 106%
viability, T/C [13]: 99.7%
viability, T/C [14]: 106%
viability, T/C [15]: 98.1%
viability, T/C [16]: 106%
viability, T/C [17]: 110%
viability, T/C [18]: 111%
viability, T/C [19]: 100%
viability, T/C [20]: 106%
viability, T/C [21]: 92.8%
viability, T/C [22]: 100%
viability, T/C [23]: 89.3%
viability, T/C [24]: 92.8%
viability, T/C [25]: 106%
viability, T/C [26]: 107%
viability, T/C [27]: 110%
viability, T/C [28]: 111%
viability, T/C [29]: 98.9%
viability, T/C [30]: 101%
